This note sets out measurements from patent US20110123530A1, “COMPOSITIONS AND METHODS FOR TREATING AND DIAGNOSING ASTHMA” (priority 2008, published 2011).

Each structure is given as a SMILES string.

Assay [1] deals with healthy and asthmatic subjects. The assay is described as follows: Methacholine challenge testing (PC20, airway hyper-responsiveness). Type of assay: in vivo, human. The note with it: median. The procedure:
(§1) (A) Volume of air exhaled in the first second of a forced expiration (FEV1), a measure of airway obstruction. (B) Improvement in FEV1 after 4 puffs (360 μg) of albuterol (bronchodilator reversibility testing). (C) Provocative concentration of methacholine required to induce a 20% decline in FEV1 (PC20), a measure of airway hyper-responsiveness.
Healthy controls (N=27) had no history of lung disease and lacked airway hyper-responsiveness (PC20 methacholine >16 mg/mL). Certain studies included current smokers without asthma (N=16). Exclusion criteria for all subjects included upper respiratory tract infection in the previous 4 weeks, asthma exacerbation within 6 weeks and current use of salmeterol, astemizole, nedocromil sodium, sodium cromoglycate, methlyxanthines, montelukast or zafirlukast. Subjects underwent baseline evaluation by study physicians (including spirometry and methacholine challenge testing as described previously). Subjects also underwent allergen skin prick testing (ASPT) with a panel of 12 aeroallergens, a positive control and a negative control (Table 6).
The minimal concentration of methacholine in mg/ml required to induce a decrease in FEV1 of 20% (PC20, measured at a screening visit one week prior to bronchoscopy) is a measure of bronchial hyperresponsiveness. This is a measure of bronchial hyper-reactivity (BHR).
(§2) The asthmatic subjects were further analyzed with respect to additional demographic characteristics and clinical features as those described in Example 7. […] This difference in AHR was apparent despite inclusion criteria that required all asthmatics to have significant AHR (all asthmatics <8 mg/ml, all healthy controls >20 mg/ml).

For assay [2], the system named is healthy and asthmatic subjects. As to the kind of experiment: Bronchodilator reversibility testing: improvement in FEV1 after albuterol. Type of assay: in vivo, human. The note with it: 4 puffs (360 μg) of albuterol, mean ± SD. The procedure:
as §1
For the purposes of identifying subsets of patients with asthma who differ with respect to the molecular mechanism underlying their airway inflammation and the distinct inflammatory, pathological and clinical phenotypes characteristic of these subsets, we first conducted new analyses on our previously generated epithelial cell microarray data, and we then supplemented these new analyses with review of additional and detailed clinical characterization data (including data on bronchodilator reversibility and allergen skin test reactivity) from these same subjects and newly generated data, including: (i) gene expression profiles in homogenates of bronchial biopsies and alveolar macrophages; (ii) quantitative measures of subepithelial collagen and airway epithelial mucin in bronchial biopsies; (iii) total and differential cell counts in BAL.
as §2

Consider `CC(=O)OC(C)C[N+](C)(C)C` (stereo not drawn) [Methacholine, methacholine], for which the “Methacholine PC20 (provocative concentration required to cause a 20% decline in FEV1)” value in assay [1] (Healthy Control) worked out at 64 mg/mL; in assay [1] (asthma, IL13 Signature Low), 0.93 mg/mL; in assay [1] (asthma, IL-13 Signature High), 0.27 mg/mL.

`CC(C)(C)NCC(O)c1ccc(O)c(CO)c1` (stereo not drawn) [albuterol]: the “ΔFEV1 with albuterol (% of baseline)” value is on record as 2.7 ± 3.4% of baseline in assay [2] (Healthy Control); 9.7 ± 7.4% of baseline in assay [2] (asthma, IL13 Signature Low); 12.5 ± 9.8 % of baseline in assay [2] (asthma, IL-13 Signature High).
